# Results: patent publication US8198279B2, “Pyrido[2,3-b]pyrazin-8-substituted compounds and their use” (Institute of Cancer Research: Royal Cancer Hospital (The), priority 2007, dated 2012)
# “And” between values parts separate entries of the source, which are not always exact repeats. Equal values may be shown once.
# Target: T1, B-RAF (Homo sapiens, UniProt P15056, V600E)
# T1 construct: made in house
# Assay: DELFIA Kinase Assay
# Format: biochemical
# Conditions: 100 μM ATP, GST-MEK substrate
# Procedure: Biological Methods—DELFIA Kinase Assay
# Compounds were assessed by a kinase assay performed according to the following protocol.
# DKB1 (DKB with B-RAF and MEK Protein):
# Combine 4950 μL of DKB and 50 μL of 2.5 mg/ml GST-MEK stock (to give […] of MEK per 40 μL). Then add 22.5 μL of B-RAF to give ˜0.2 μL of B-RAF per 40 μL.
# 100 mM stock, dilute to 500 μM to give 100 μM final concentration in assay.
# • 1. Preblock wells with 5% milk in TBS for 1 hour. • 2. Wash wells with 3× with 200 μL TBS. • 3. Plate out 40 μL of DKB1 for all inhibitors (test compounds), DMSO control, and optionally other control compounds. • 4. Plate out 40 μL of DKB2 for BO and EV wells. • 5. Add inhibitors (test compounds) at 0.5 μL per well according to desired plate layout. • 6. Add 0.5 μL DMSO to vehicle control wells. • 7. Add 2 μL of B-RAF to BO and EV wells. • 8. Pre-incubate with inhibitors (test compounds) for 10 minutes at room temperature with shaking. • 9. Add 10 μL of 500 μM ATP stock, in DKB, to give 100 μM assay concentration. • 10. Seal plates with TopSeal and incubate at room temperature with shaking for 45 minutes. • 11. Wash plates 3× with 200 μL 0.1% Tween20/Water to terminate reaction. • 12. Add 50 μL per well of antibody mix and incubate for 1 hour at room temperature with shaking. • 13. Wash plates 3× with 200 μL 0.1% Tween20/Water. • 14. Add 100 μL DELFIA enhancement solution per well, cover in foil, and incubate at room temperature for 30 minutes with shaking. • 15. Read on Victor using Europium protocol.
# Values for the blank (Empty Vector) are subtracted from all values. The DMSO controls are set as 100% activity and assay points (the response) are calculated as a percentage of the DMSO control. Data are plotted using Graphpad Prism software and a non-linear regression line is calculated using a variable slope sigmoidal dose-response equation (Y=Bottom+(Top−Bottom)/(1+10^((LogEC50−X)*HillSlope)) where X is the logarithm of concentration. Y is the response). The IC50 generated by this procedure is the concentration of the drug that produces a percentage control fluorescence value midway between the saturation, and zero-effect plateaus. Three independent assays are usually performed and the mean IC50 is reported.
# T1 sequence (P15056 whole entry V600E): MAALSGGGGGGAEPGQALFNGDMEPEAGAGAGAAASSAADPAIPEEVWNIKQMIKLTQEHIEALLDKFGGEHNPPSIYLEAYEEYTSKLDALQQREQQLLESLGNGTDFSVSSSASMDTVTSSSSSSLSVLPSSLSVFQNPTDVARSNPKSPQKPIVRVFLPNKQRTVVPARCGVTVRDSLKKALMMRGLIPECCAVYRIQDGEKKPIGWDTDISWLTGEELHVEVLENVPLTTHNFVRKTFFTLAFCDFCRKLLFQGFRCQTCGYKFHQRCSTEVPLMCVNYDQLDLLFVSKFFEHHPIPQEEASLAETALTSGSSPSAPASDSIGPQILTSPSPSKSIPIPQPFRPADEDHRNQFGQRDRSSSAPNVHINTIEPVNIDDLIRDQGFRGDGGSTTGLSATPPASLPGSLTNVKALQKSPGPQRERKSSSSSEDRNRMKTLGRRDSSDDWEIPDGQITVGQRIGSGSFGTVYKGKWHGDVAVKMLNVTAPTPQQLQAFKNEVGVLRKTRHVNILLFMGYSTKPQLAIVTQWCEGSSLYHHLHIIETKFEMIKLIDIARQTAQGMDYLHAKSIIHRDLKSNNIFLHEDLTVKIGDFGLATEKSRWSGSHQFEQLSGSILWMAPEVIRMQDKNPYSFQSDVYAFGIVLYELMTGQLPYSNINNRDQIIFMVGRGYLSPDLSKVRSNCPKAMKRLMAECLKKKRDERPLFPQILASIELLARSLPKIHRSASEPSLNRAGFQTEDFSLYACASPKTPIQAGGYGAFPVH
row,IC50,Structure (SMILES)
1,< 1000 nM and 100 to 1000 nM,"CC(C)(C)c1cc(NC(=O)c2cccc(Oc3ccnc4[nH]c(=O)cnc34)c2)n(-c2ccccc2)n1 [AA-001, N-(3-tert-butyl-1-phenyl-1H-pyrazol-5-yl)-3-(3-oxo-3,4-dihydropyrido[2,3-b]pyrazin-8-yloxy)benzamide]"
2,< 100 nM,"O=C(Nc1cccc(Oc2ccnc3[nH]c(=O)cnc23)c1)c1cccc(OC(F)(F)F)c1 [AA-002, N-(3-(3-oxo-3,4-dihydropyrido[2,3-b]pyrazin-8-yloxy)phenyl)-3-(trifluoro-methoxy)benzamide]"
3,< 100 nM,"CC(C)(C)c1cccc(C(=O)Nc2cccc(Oc3ccnc4[nH]c(=O)cnc34)c2)c1 [AA-003, 3-tert-butyl-N-(3-(3-oxo-3,4-dihydropyrido[2,3-b]pyrazin-8-yloxy)phenyl)benzamide]"
4,< 100 nM,Cc1nc2c(Oc3cccc(NC(=O)c4cccc(OC(F)(F)F)c4)c3)ccnc2[nH]c1=O [AA-004]
5,< 100 nM,"Cc1nc2c(Oc3cccc(NC(=O)c4cccc(C(C)(C)C)c4)c3)ccnc2[nH]c1=O [AA-005, 3-tert-butyl-N-(3-(2-methyl-3-oxo-3,4-dihydropyrido[2,3-b]pyrazin-8-yloxy)phenyl)benzamide]"
6,< 100 nM,"Cc1ccc(-n2nc(C(C)(C)C)cc2NC(=O)Nc2cccc(Oc3ccnc4[nH]c(=O)cnc34)c2)cc1 [AA-006, 1-(3-tert-butyl-1-p-tolyl-1H-pyrazol-5-yl)-3-(3-(3-oxo-3,4-dihydropyrido[2,3-b]pyrazin-8-yloxy)phenyl)urea]"
7,< 100 nM,"CC(C)(C)c1cc(NC(=O)Nc2ccc(Oc3ccnc4[nH]c(=O)cnc34)c3ccccc23)n(-c2ccccc2)n1 [AA-008, 1-(3-tert-butyl-1-phenyl-1H-pyrazol-5-yl)-3-(4-(3-oxo-3,4-dihydropyrido[2,3-b]pyrazin-8-yloxy)naphthalen-1-yl)urea]"
8,< 100 nM,"Cc1nc2c(Oc3ccc(NC(=O)Nc4cc(C(C)(C)C)nn4-c4ccccc4)c4ccccc34)ccnc2[nH]c1=O [AA-009, 1-(3-tert-butyl-1-phenyl-1H-pyrazol-5-yl)-3-(4-(2-methyl-3-oxo-3,4-dihydropyrido[2,3-b]pyrazin-8-yloxy)naphthalen-1-yl)urea]"
9,< 100 nM,"Cc1ccc(-n2nc(C(C)(C)C)cc2NC(=O)Nc2ccc(Oc3ccnc4[nH]c(=O)cnc34)c3ccccc23)cc1 [AA-010, 1-(3-tert-butyl-1-p-tolyl-1H-pyrazol-5-yl)-3-(4-(3-oxo-3,4-dihydropyrido[2,3-b]pyrazin-8-yloxy)naphthalen-1-yl)urea]"
10,< 100 nM,"Cc1ccc(-n2nc(C(C)(C)C)cc2NC(=O)Nc2ccc(Oc3ccnc4[nH]c(=O)c(C)nc34)c3ccccc23)cc1 [AA-011, 1-(3-tert-butyl-1-p-tolyl-1H-pyrazol-5-yl)-3-(4-(2-methyl-3-oxo-3,4-dihydropyrido[2,3-b]pyrazin-8-yloxy)naphthalen-1-yl)urea]"
11,< 100 nM,"Cc1nc2c(Oc3ccc(NC(=O)Nc4cc(C(F)(F)F)ccc4F)c4ccccc34)ccnc2[nH]c1=O [AA-014, 1-(2-fluoro-5-(trifluoromethyl)phenyl)-3-(4-(2-methyl-3-oxo-3,4-dihydropyrido[2,3-b]pyrazin-8-yloxy)naphthalen-1-yl)urea]"
12,< 100 nM,"Nc1nc2c(Oc3ccc(NC(=O)Nc4cc(C(F)(F)F)ccc4F)c4ccccc34)ccnc2[nH]c1=O [AA-015, 1-(4-(2-amino-3-oxo-3,4-dihydropyrido[2,3-b]pyrazin-8-yloxy)naphthalen-1-yl)-3-(2-fluoro-5-(trifluoromethyl)phenyl)urea]"
13,< 1000 nM and 100 to 1000 nM and 252 nM,"Cc1ccc(-n2nc(C(C)(C)C)cc2NC(=O)Nc2ccc(Oc3ccnc4[nH]c(=O)cnc34)cc2)cc1 [AA-016, 1-(3-tert-butyl-1-p-tolyl-1H-pyrazol-5-yl)-3-(4-(3-oxo-3,4-dihydropyrido[2,3-b]pyrazin-8-yloxy)phenyl)urea]"
14,< 100 nM,"CSc1cc(Oc2ccnc3[nH]c(=O)cnc23)ccc1NC(=O)Nc1cc(C(C)(C)C)nn1-c1ccc(C)cc1 [AA-017, 1-(3-tert-butyl-1-p-tolyl-1H-pyrazol-5-yl)-3-(2-(methylthio)-4-(3-oxo-3,4-dihydropyrido[2,3-b]pyrazin-8-yloxy)phenyl)urea]"
15,< 100 nM,"Cc1ccc(-n2nc(C(C)(C)C)cc2NC(=O)Nc2ccc(Oc3ccnc4[nH]c(=O)cnc34)cc2F)cc1 [AA-018, 1-(3-tert-butyl-1-p-tolyl-1H-pyrazol-5-yl)-3-(2-fluoro-4-(3-oxo-3,4-dihydropyrido[3,2-b]pyrazin-8-yloxy)phenyl)urea]"
16,< 100 nM,"CC(C)(C)c1cc(NC(=O)Nc2ccc(Oc3ccnc4[nH]c(=O)cnc34)cc2F)n(-c2ccccc2)n1 [AA-019, 1-(3-tert-butyl-1-phenyl-1H-pyrazol-5-yl)-3-(2-fluoro-4-(3-oxo-3,4-dihydropyrido[3,2-b]pyrazin-8-yloxy)phenyl)urea]"
17,< 100 nM,"O=C(Nc1ccc(Oc2ccnc3[nH]c(=O)cnc23)cc1)Nc1ccc(Cl)c(C(F)(F)F)c1 [AA-020, 1-(4-chloro-3-(trifluoromethyl)phenyl)-3-(4-(3-oxo-3,4-dihydropyrido[2,3-b]pyrazin-8-yloxy)phenyl)urea]"
18,< 1000 nM and 100 to 1000 nM,"Nc1nc2nccc(Oc3ccc(NC(=O)Nc4cc(C(F)(F)F)ccc4F)c(F)c3)c2[nH]c1=O [AA-022, 1-(4-(3-amino-2-oxo-1,2-dihydropyrido[2,3-b]pyrazin-8-yloxy)-2-fluorophenyl)-3-(2-fluoro-5-(trifluoromethyl)phenyl)urea]"
19,< 100 nM,CSc1cc(Oc2ccnc3[nH]c(=O)cnc23)ccc1NC(=O)Nc1ccc(Cl)c(C(F)(F)F)c1 [AA-023]
20,< 100 nM,"CSc1cc(Oc2ccnc3[nH]c(=O)cnc23)ccc1NC(=O)Nc1cc(C(F)(F)F)ccc1F [AA-024, 1-(2-fluoro-5-(trifluoromethyl)phenyl)-3-(2-(methylthio)-4-(3-oxo-3,4-dihydropyrido[3,2-b]pyrazin-8-yloxy)phenyl)urea]"
21,< 100 nM,"O=C(Nc1ccc(Cl)c(C(F)(F)F)c1)Nc1ccc(Oc2ccnc3[nH]c(=O)cnc23)cc1F [AA-025, 1-(4-Chloro-3-(trifluoromethyl)phenyl)-3-(2-fluoro-4-(3-oxo-3,4-dihydropyrido[2,3-b]pyrazin-8-yloxy)phenyl)urea]"
22,< 100 nM,"O=C(Nc1ccc(Oc2ccnc3[nH]c(=O)cnc23)cc1F)Nc1cc(C(F)(F)F)ccc1F [AA-026, 1-(2-Fluoro-5-(trifluoromethyl)phenyl)-3-(2-fluoro-4-(3-oxo-3,4-dihydropyrido[2,3-b]pyrazin-8-yloxy)phenyl)urea]"
23,< 100 nM,"O=C(Nc1ccc(Sc2ccnc3[nH]c(=O)cnc23)cc1)Nc1cc(C(F)(F)F)ccc1F [AA-027, 1-(2-Fluoro-5-(trifluoromethyl)phenyl)-3-(4-(3-oxo-3,4-dihydropyrido[2,3-b]pyrazin-8-ylthio)phenyl)urea]"
24,< 100 nM,"Cc1nc2c(Oc3ccc(NC(=O)Nc4cc(C(F)(F)F)ccc4F)c(F)c3)ccnc2[nH]c1=O [AA-028, 1-(2-Fluoro-4-(2-methyl-3-oxo-3,4-dihydropyrido[2,3-b]pyrazin-8-yloxy)phenyl)-3-(2-fluoro-5-(trifluoromethyl)phenyl)urea]"
25,< 100 nM,"CC(C)(C)c1cccc(C(=O)Nc2cccc(Oc3ccnc4ncc(=O)[nH]c34)c2)c1 [AA-029, 3-tert-butyl-N-(3-(2-oxo-1,2-dihydropyrido[2,3-b]pyrazin-8-yloxy)phenyl)benzamide]"
26,< 1000 nM and 100 to 1000 nM,"O=C(Nc1cccc(Oc2ccnc3ncc(=O)[nH]c23)c1)c1cccc(OC(F)(F)F)c1 [AA-030, N-(3-(2-oxo-1,2-dihydropyrido[2,3-b]pyrazin-8-yloxy)phenyl)-3-(trifluoromethoxy)benzamide]"
27,< 1000 nM and 100 to 1000 nM,"Cc1ccc(-n2nc(C(C)(C)C)cc2NC(=O)Nc2cccc(Oc3ccnc4ncc(=O)[nH]c34)c2)cc1 [AA-031, 1-(3-tert-butyl-1-p-tolyl-1H-pyrazol-5-yl)-3-(3-(2-oxo-1,2-dihydropyrido[2,3-b]pyrazin-8-yloxy)phenyl)urea]"
28,< 100 nM,"O=C(Nc1cccc(Oc2ccnc3ncc(=O)[nH]c23)c1)Nc1cc(C(F)(F)F)ccc1F [AA-032, 1-(2-fluoro-5-(trifluoromethyl)phenyl)-3-(3-(2-oxo-1,2-dihydropyrido[2,3-b]pyrazin-8-yloxy)phenyl)urea]"
29,< 1000 nM and 100 to 1000 nM,"CC(C)(C)c1cc(NC(=O)Nc2ccc(Oc3ccnc4ncc(=O)[nH]c34)c3ccccc23)n(-c2ccccc2)n1 [AA-034, 1-(3-tert-butyl-1-phenyl-1H-pyrazol-5-yl)-3-(4-(2-oxo-1,2-dihydropyrido[2,3-b]pyrazin-8-yloxy)naphthalen-1-yl)urea]"
